The subject of assay [1] is MIA PaCa-2 cells. The assay can be described thus: Growth inhibition activity on KRAS-G12C mutant cell line (CellTiter-Glo 3D). In kind it is cell-based, human. The conditions noted are these: MIA PaCa-2, 3-day culture with compound. How it is done: MIA PaCa-2 cells (given by Sumitomo Dainippon Pharma Co., Ltd.), which are a KRAS-G12C mutant human pancreas cancer cell line, were suspended in a 10% fetal bovine serum-containing RPMI1640 medium (manufactured by Fujifilm Wako Pure Chemical Corporation). The cell suspension was seeded into each well of a 384-well U bottom microplate and cultured in an incubator containing 5% CO2 gas at 37° C. for 1 day. The compounds obtained in the “Preparation of Compounds” section were used as test compounds and were dissolved in DMSO, respectively, and each test compound was diluted with DMSO to give a concentration 500 times the final concentration. The resultant solution of the test compound in DMSO was diluted with the medium used for suspending cells and added to each well of the cell-culture plate to give a DMSO final concentration of 0.2%, followed by culture in an incubator containing 5% CO2 gas at 37° C. for another 3 days. The cell count after 3-day culture in the presence of the test compound was measured using CellTiter-Glo 3D Reagent (manufactured by Promega Corporation). All wells were added with CellTiter-Glo 3D Reagent and mixed for 10 minutes. 30 minutes after mixing, luminescence was measured by a plate reader. The growth inhibition rate was calculated from the following equation, and the concentration of the test compound at which 50% inhibition was achieved (IC50 (nM)) was determined.
[formula] • T: the emission intensity in a well into which a test compound was added. • C: the emission intensity in a well into which a test compound was not added.
(Cellular ATP, detected with luciferase, serves as a proxy for viable cell number.)

The target of assay [2] is T1, interaction between GMPPNP-bound recombinant K-Ras4B G12C mutant protein and cRAF RAS-binding domain (cRAF-RBD) (Homo sapiens, UniProt P01116, G12C).
T1 construct: His-tag (N)
The assay can be described thus: Inhibitory activity on interaction between KRAS G12C and cRAF (Alpha technology). How it is done: Interaction between recombinant K-Ras4B G12C mutant protein (amino acids 1-169, SEQ ID NO:2) and cRAF RAS-binding domain (cRAF-RBD, amino acids 50-132, Jena Biosciences GmbH) was measured using Alpha technology (PerkinElmer Inc.).
Recombinant KRAS G12C protein with an N-terminal His-tag was expressed in E. coli and purified by affinity chromatography. To prepare GTP-bound form and GDP-bound form of KRAS G12C protein, 50 μM KRAS G12C protein was incubated with 1 mM GMPPNP (Guanosine-5′-[(β,γ)-imido]triphosphate, Tetralithium salt) (Jena Bioscience GmbH) and 1 mM GDP, respectively, in a loading buffer (20 mM Tris-HCl (pH 7.5), 50 mM NaCl, 1 mM DTT and 2.5 mM EDTA) for 1 hour on ice. After the incubation, MgCl2 was added to a final concentration of 10 mM, followed by incubation at room temperature for 30 minutes. The mixture was allowed to pass through a NAP-5 column to remove free nucleotides and purified, and the resultant nucleotide-bound KRAS G12C protein was used for compound evaluation.
For the measurement of the inhibitory activity of compounds on interaction between KRAS G12C and cRAF-RBD, GMPPNP-bound KRAS G12C protein was incubated with various concentrations of compound in a reaction buffer (20 mM Tris-HCl (pH 7.5), 100 mM NaCl, 1 mM MgCl2, 1 mM TCEP, 0.1% Tween 20) at 25° C. for 1 hour. After the incubation, recombinant cRAF-RBD and Alpha detection reagents were added and incubated at room temperature for 1.5 hours for binding. Interaction of KRAS G12C and cRAF-RBD was monitored by measuring Alpha signal. Inhibition % was calculated using the signal from the reaction without test compound (DMSO control) as 0% inhibition and the signal from the reaction using GDP-bound KRAS G12C in place of GMPPNP-bound KRAS G12C as 100% inhibition. IC50 values were calculated from dose titration curve using curve fitting by XLfit software (IDBS).

The mark [3] stands for this setting: Homo sapiens, MIA PaCa-2, 72 h, Table 3-1.
Setting [4] is: GMPPNP-bound KRAS G12C incubated with compound 25° C. 1 hour, Table 2-1, read-out: IC50.
Setting [5] is: IC50, GMPPNP-bound KRAS G12C incubated with compound 25° C. 1 hour, Table 2.

Structures are written as SMILES. Like-named read-outs stand apart in the source and are kept apart here.

Among the data in patent publication US20240262842A1, “SMALL MOLECULE INHIBITORS OF KRAS G12C MUTANT” (Merck Sharp & Dohme LLC, priority 2021, published 2024) are IC50 values, retold here.

T1 sequence (P01116 with tags, fused parts or gaps isoform P01116-2 G12C): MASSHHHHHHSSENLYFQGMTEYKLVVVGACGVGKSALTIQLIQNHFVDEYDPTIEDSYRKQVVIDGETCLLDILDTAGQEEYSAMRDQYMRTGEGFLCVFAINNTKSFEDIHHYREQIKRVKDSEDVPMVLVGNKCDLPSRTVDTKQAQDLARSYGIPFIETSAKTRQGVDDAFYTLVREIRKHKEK

Regarding `Cn1cnc2c3c(c(C(F)(F)F)cc21)-c1cccn2c(C(=O)c4cc(F)c(NC(=O)/C=C/CN5CCC[C@](C)(O)C5)c(F)c4)cc(c12)CCO3` [Example 196, (S,E)-N-(2,6-difluoro-4-(9-methyl-7-(trifluoro-methyl)-13,14-dihydro-9H-imidazo[4″,5″:5′,6′]-benzo[1′,2′:2,3]oxocino-[4,5,6-hi]indolizine-2-carbonyl)phenyl)-4-(3-hydroxy-3-methylpiper-idin-1-yl)but-2-enamide], the 50% inhibitory concentration (IC50) (in general, the concentration that inhibits the measured activity by half) was 31.5 nM in assay [1] (setting [3]) and 35.1 nM in assay [2] (setting [4]).

On to `CC1(NC/C=C/C(=O)Nc2c(F)cc(C(=O)c3cc4c5c(cccn35)-c3c(cc(N5CCNC5=O)cc3C(F)(F)F)OCC4)cc2F)CC1` [Example 233, (E)-N-(2,6-difluoro-4-(7-(2-oxoimidazolidin-1-yl)-9-(trifluoromethyl)-3,4-dihydrobenzo[2,3]oxo-cino[4,5,6-hi]indolizine-1-carbonyl)phenyl)-4-((1-methylcyclopropyl)-amino)but-2-enamide], for which the results for the IC50 in assay [1] (setting [3]) and in assay [2] (setting [4]) were 14 nM and 52.6 nM, respectively.

In the case of `Cc1cc2c(ncn2C)c2c1-c1cccn3c(C(=O)c4cc(F)c(NC(=O)/C=C/CNC5(C)CCOCC5)c(F)c4)cc(c13)CCN2C` [Example 116], the concentration for half-maximal inhibition (IC50) worked out at 29.9 nM in assay [1] (setting [3]) and 26.6 nM in assay [2] (setting [4]).

On to `COc1cc2c(nc(C)n2C)c2c1-c1cccn3c(C(=O)c4cc(F)c(NC(=O)/C=C/CN[C@@H]5CCCOC5)c(F)c4)cc(c13)CCN2C` [Example 133], for which the IC50 in assay [1] (setting [3]) is 6.45 nM; in assay [2] (setting [4]) it was 11.4 nM.

Turning to `CC1Cc2cc(C(=O)c3cc(F)c(NC(=O)/C=C/CNC4(C)COC4)c(F)c3)n3cccc(c23)-c2c(C(F)(F)F)cc3c(ncn3C)c2O1` (single isomer, unassigned) [Example 130-1, (E)-N-(4-(9,13-dimethyl-7-(trifluoromethyl)-13,14-dihydro-9H-imidazo[4″,5″:5′,6′]benzo[1′,2′:2,3]oxocino[4,5,6-hi]indolizine-2-carbonyl)-2,6-difluorophenyl)-4-((3-methyloxetan-3-yl)amino)but-2-enamide], the concentration for half-maximal inhibition (IC50) in assay [1] (Table 3-1) came to 17.4 nM; in assay [2] (setting [4]), 26.3 nM.

Turning to `Cc1nc2c3c(c(C(F)(F)F)cc2n1C)-c1cccc2c(C(=O)c4cc(F)c(NC(=O)/C=C/CN[C@@H]5CCOC5)c(F)c4)cn(c12)CCN3C` (single isomer, unassigned) [Example 95], the IC50 is 11.4 nM in assay [1] (setting [3]) and 31.2 nM in assay [2] (IC50, GMPPNP-bound KRAS G12C incubated with compound 25° C. 1 hour, Table 2-1).

Turning to `CN1CCc2cc(C(=O)c3cc(F)c(NC(=O)/C=C/CNC4(CO)CCCC4)c(F)c3)n3cccc(c23)-c2c(C(F)(F)F)cc3c(ncn3C)c21` [Example 109, (E)-N-(4-(9,12-dimethyl-7-(trifluoromethyl)-9,12,13,14-tetrahydro-imidazo[4″,5″:5′,6′]benzo-[1′,2′:2,3]azocino[4,5,6-hi]indolizine-2-carbonyl)-2,6-difluorophenyl)-4-((1-(hydroxymethyl)cyclo-pentyl)amino)but-2-enamide], the values for the IC50 in assay [1] (setting [3]) and in assay [2] (setting [4]) were 19.5 nM and 24.8 nM, respectively.

Take `COc1cc2c(nc(C)n2C)c2c1-c1cccn3c(C(=O)c4cc(F)c(NC(=O)/C=C/CNC5(C)COC5)c(F)c4)cc(c13)CCN2C` (single isomer, unassigned) [Example 141, (E)-N-(2,6-difluoro-4-(7-methoxy-9,10,12-trimethyl-9,12,13,14-tetrahydroimidazo[4″,5″: 5′,6′]benzo[1′,2′:2,3]-azocino[4,5,6-hi]indol-izine-2-carbonyl)phenyl)-4-((3-methyloxetan-3-yl)-amino)but-2-enamide]: the half-maximal inhibitory concentration (IC50) in assay [1] (setting [3]) amounted to 34.3 nM; in assay [2] (setting [4]) it was 9.71 nM.

As for `Cn1cnc2c3c(c(C(F)(F)F)cc21)-c1cccn2c(C(=O)c4cc(F)c(NC(=O)/C=C/CN5CC[C@H]5C(C)(C)O)c(F)c4)cc(c12)CCO3` [Example 162, (S,E)-N-(2,6-difluoro-4-(9-methyl-7-(trifluoro-methyl)-13,14-dihydro-9H-imidazo[4″,5″:5′,6′]-benzo[1′,2′:2,3]oxocino-[4,5,6-hi]indolizine-2-carbonyl)phenyl)-4-(2-(2-hydroxypropan-2-yl)-azetidin-1-yl)but-2-enamide], the results for the IC50 in assay [1] (setting [3]) and in assay [2] (setting [4]) were 15.2 nM and 22.4 nM, respectively.

With `COCc1nc2c3c(c(OC)cc2n1C)-c1cccn2c(C(=O)c4cc(F)c(NC(=O)/C=C/CN5CCCC5)c(F)c4)cc(c12)CCN3C` (single isomer, unassigned) [Example 188, (E)-N-(2,6-difluoro-4-(7-methoxy-10-(methoxy-methyl)-9,12-dimethyl-9,12,13,14-tetrahydro-imidazo[4″,5″:5′,6′]benzo-[1,2:2,3]azocino[4,5,6-hi]indolizine-2-carbonyl)-phenyl)-4-(pyrrolidin-1-yl)but-2-enamide], the values for the IC50 in assay [1] (setting [3]) and in assay [2] (setting [4]) were 39.7 nM and 72.5 nM, respectively.

For `CO[C@H]1CC[C@H](NC/C=C/C(=O)Nc2c(F)cc(C(=O)c3cn4c5c(cccc35)-c3c(C(F)(F)F)cc5c(nc(C)n5C)c3OCC4)cc2F)CC1` (single isomer, unassigned) [Example 12-2, (E)-N-(4-(8,9-dimethyl-6-(trifluoromethyl)-12,13-dihydro-8H-imidazo[4″,5″:3′,4′]benzol[1′,2′:7,8][1,4]oxazocino[6,5,4-hi]indole-2-carbonyl)-2,6-difluorophenyl)-4-(((1r,4r)-4-methoxycyclohexyl)amino)but-2-enamide], the IC50 in assay [1] (Table 3) was 1600 nM; in assay [2] (setting [5]), more than 6700 nM.

For the compound `COCc1nc2c3c(c(OC)cc2n1C)-c1cccn2c(C(=O)c4cc(F)c(NC(=O)/C=C/CN[C@H]5CCOC5)c(F)c4)nc(c12)CCN3C` (single isomer, unassigned) [Example 177], the values for the IC50 in assay [1] (setting [3]) and in assay [2] (setting [4]) were 38.5 nM and 39.5 nM, respectively.

On to `Cn1cnc2c3c(c(C(F)(F)F)cc21)-c1cccn2c(C(=O)c4cc(F)c(NC(=O)/C=C/CN5CCC5)c(F)c4)cc(c12)CCO3` [Example 161, (E)-4-(azetidin-1-yl)-N-(2,6-difluoro-4-(9-methyl-7-(trifluoromethyl)-13,14-dihydro-9H-imidazo-[4″,5″:5′,6′]benzo[1′,2′: 2,3]oxocino[4,5,6-hi]-indolizine-2-carbonyl)-phenyl)but-2-enamide], for which the IC50 in assay [1] (setting [3]) came to 21.6 nM; in assay [2] (setting [4]), 63.2 nM.

On to `CO[C@H]1CC[C@H](NC/C=C/C(=O)Nc2c(F)cc(C(=O)c3cn4c5c(cccc35)-c3c(C(F)(F)F)cc5c(nc(C)n5C)c3OCC4)cc2F)CC1` (single isomer, unassigned) [Example 12-1, (E)-N-(4-(8,9-dimethyl-6-(trifluoromethyl)-12,13-dihydro-8H-imidazo[4″,5″:3′,4′]benzol[1′,2′:7,8][1,4]oxazocino[6,5,4-hi]indole-2-carbonyl)-2,6-difluorophenyl)-4-(((1r,4r)-4-methoxycyclohexyl)amino)but-2-enamide], for which the figures for the IC50 in assay [1] (Table 3) and in assay [2] (setting [5]) were 1 nM and 5 nM, respectively.

In the case of `Cn1cnc2c3c(c(C(F)(F)F)cc21)-c1cccn2c(C(=O)c4cc(F)c(NC(=O)/C=C/CN5C6CCCC5CC6)c(F)c4)cc(c12)CCO3` [Example 235, (E)-4-((1R,5S)-8-azabicyclo[3.2.1]octan-8-yl)-N-(2,6-difluoro-4-(9-methyl-7-(trifluoro-methyl)-13,14-dihydro-9H-imidazo[4″,5″:5′,6′]-benzo[1′,2′:2,3]oxocino-[4,5,6-hi]indolizine-2-carbonyl)phenyl)but-2-enamide], the half-inhibitory concentration (IC50) in assay [1] (setting [3]) worked out at 17 nM; in assay [2] (setting [4]) it was 21.9 nM.
